{"source": "paper PMC10556057", "about": "“The proton channel OTOP1 is a sensor for the taste of ammonium chloride” (Nature Communications, 2023)", "target": "T1, mOTOP1 (Mus musculus, UniProt Q80VM9)", "T1 construct": "gene Otop1; full length in HEK-293 / PAC-KO cells; homodimer", "T1 sequence (Q80VM9 1-600)": "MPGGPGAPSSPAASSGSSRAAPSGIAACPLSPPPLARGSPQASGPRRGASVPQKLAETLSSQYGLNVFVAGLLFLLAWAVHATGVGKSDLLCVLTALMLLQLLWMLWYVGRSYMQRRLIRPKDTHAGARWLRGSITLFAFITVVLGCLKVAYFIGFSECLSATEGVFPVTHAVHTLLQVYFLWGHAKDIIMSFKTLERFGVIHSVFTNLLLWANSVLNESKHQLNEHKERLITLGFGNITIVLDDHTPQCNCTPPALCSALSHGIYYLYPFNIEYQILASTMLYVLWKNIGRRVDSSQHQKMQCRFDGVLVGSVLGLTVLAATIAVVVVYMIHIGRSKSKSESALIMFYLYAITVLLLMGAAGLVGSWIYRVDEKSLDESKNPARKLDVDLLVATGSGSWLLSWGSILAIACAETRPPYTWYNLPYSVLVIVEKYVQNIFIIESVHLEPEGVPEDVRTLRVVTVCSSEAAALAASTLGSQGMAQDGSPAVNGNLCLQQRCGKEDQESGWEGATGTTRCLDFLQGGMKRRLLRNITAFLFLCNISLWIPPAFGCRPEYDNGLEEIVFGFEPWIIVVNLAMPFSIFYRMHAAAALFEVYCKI", "assay": "whole-cell patch clamp, inward current in HEK-293", "assay_type": "cell-based"}
{"compound": "N", "note": "[NH4Cl]", "values": [{"measurement": "EC50", "value": 18.7, "unit": "mM"}]}
